The test system of one data set is TRPV5. The following applies: cited from earlier work.
Another data set addresses rTRPV6-Y466A (Rattus norvegicus, UniProt Q9R186, Y506A). Description: cell-based. From the text: (§1) To further characterize the 2-APB binding site and to examine the contribution of individual residues to 2-APB inhibition, we introduced alanine substitutions at residues in the 2-APB binding pocket (E402, H425, Y466, R469, and M602) and tested 2-APB inhibition.
(§2) For crystallization experiments, we used the previously developed construct TRPV6*[39], which includes wild-type rat TRPV6 (rTRPV6) residues 1–668 and three point mutations (I62Y, L92N, and M96Q), and the TRPV6*-Y466A construct, which contains an additional point mutation, Y466A. For calcium uptake measurement experiments, we used TRPV6*, rTRPV6, and rTRPV6 with individual alanine substitutions (rTRPV6-E402A, rTRPV6-H425A, rTRPV6-Y466A, rTRPV6-R469A, and rTRPV6-M602A), wild-type human TRPV6 (hTRPV6), hTRPV6 with a single tyrosine-to-alanine substitution (hTRPV6-Y467A), wild-type rat TRPV1 (rTRPV1), rat TRPV2 (rTRPV2) and mouse TRPV3 (mTRPV3), and their mutant versions with single tyrosine-to-alanine substitutions (rTRPV1-Y554A, rTRPV2-Y514A, and mTRPV3-Y564A, respectively). For cryo-EM experiments, we used hTRPV6 and hTRPV6-Y467A constructs.
(§3) The intracellular Ca^2+ measurements from HEK 293 cells expressing different TRP channel constructs (see above) were performed similarly to those described previously[39],[49]. Briefly, to measure 2-APB-dependent inhibition of TRPV6 activity, cells expressing TRPV6 constructs were suspended in Ca^2+-free buffer and transferred to a quartz cuvette. After an initial 100-s equilibration period, 2-APB was added to the cuvette and incubated for another 100 s, before 2 mM CaCl2 was added. For the TRPV6-E402A mutant, 5 mM instead of 2 mM CaCl2 was added. For intracellular Ca^2+ measurements from HEK 293 cells expressing TRPV1, TRPV2, or TRPV3, the experiments were carried out with prewarmed modified HBS (118 mM NaCl, 4.8 mM KCl, 1 mM MgCl2, 2.5 mM CaCl2, 5 mM D-glucose, 10 mM HEPES pH 7.4). Briefly, HEK 293 cells expressing TRPV1/2/3 channels were centrifuged at 600×g, resuspended in modified HBS containing 5 μg/mL of Fura 2-AM (Life Technologies), and incubated at 37 °C for 45 min. Next, the cells were centrifuged for 5 min at 600×g, resuspended in prewarmed, modified HBS, and incubated again at 37 °C for 20–30 min in the dark. The cells were subsequently pelleted and washed twice, and then resuspended in modified HBS for fluorescence measurements. Intracellular Ca^2+ was measured by taking the ratio of fluorescence (510 nm) emitted from Fura 2-AM after excitation at either a wavelength of 340 nm (excites Ca^2+ bound Fura 2-AM) or 380 nm (excites Ca^2+ free Fura 2-AM). The excitation wavelength was switched at 1-s intervals. ΔF340/F380 was measured as the difference between baseline F340/F380 ratio recorded before the addition of Ca^2+ (for TRPV6 experiments) or 2-APB (for TRPV1-3) and the maximum F340/F380 after addition of either Ca^2+ or 2-APB. Data were normalized to ΔF340/F380 in the absence of 2-APB (for TRPV6 constructs) or the ΔF340/F380 value at saturating concentrations of 2-APB (for TRPV1/2/3). All Fura2-AM-based fluorescence measurements were conducted using a QuantaMaster^TM 40 (Photon Technology International) spectrofluorometer at room temperature in a quartz cuvette under constant stirring.

The next data set deals with rTRPV6-M602A (Rattus norvegicus, UniProt Q9R186, M642A). Description: cell-based.
Chain of rTRPV6-M602A (Q9R186 41-767 M642A limits assumed): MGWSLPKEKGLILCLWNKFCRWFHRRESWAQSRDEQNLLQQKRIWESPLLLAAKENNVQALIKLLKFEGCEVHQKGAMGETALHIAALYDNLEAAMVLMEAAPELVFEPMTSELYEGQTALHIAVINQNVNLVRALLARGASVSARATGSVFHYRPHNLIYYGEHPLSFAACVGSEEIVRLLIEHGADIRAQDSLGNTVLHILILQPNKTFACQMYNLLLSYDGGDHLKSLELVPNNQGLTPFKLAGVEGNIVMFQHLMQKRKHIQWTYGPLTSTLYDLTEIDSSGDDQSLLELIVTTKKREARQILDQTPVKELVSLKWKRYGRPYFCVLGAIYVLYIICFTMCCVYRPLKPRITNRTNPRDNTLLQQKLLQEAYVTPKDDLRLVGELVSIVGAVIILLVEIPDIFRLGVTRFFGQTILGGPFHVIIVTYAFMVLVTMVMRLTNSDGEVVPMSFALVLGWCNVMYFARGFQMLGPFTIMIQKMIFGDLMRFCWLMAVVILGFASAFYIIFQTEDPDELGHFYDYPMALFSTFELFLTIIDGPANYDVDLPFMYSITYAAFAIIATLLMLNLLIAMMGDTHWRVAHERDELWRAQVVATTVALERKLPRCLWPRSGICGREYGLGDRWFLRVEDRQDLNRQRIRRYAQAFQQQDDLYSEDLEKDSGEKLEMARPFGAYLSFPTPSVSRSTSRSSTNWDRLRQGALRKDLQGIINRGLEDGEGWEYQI
Excerpt: as §1, §2, §3

In a further data set the target is rTRPV6-R469A (Rattus norvegicus, UniProt Q9R186, R509A). Description: cell-based.
Chain of rTRPV6-R469A (Q9R186 41-767 R509A limits assumed): as the sequence (Q9R186 41-767 M642A limits assumed) above, with R469A, A602M counted along it
Excerpt: as §1, §2, §3

The target in the next data set is rTRPV6-H425A (Rattus norvegicus, UniProt Q9R186, H465A). Description: cell-based.
Chain of rTRPV6-H425A (Q9R186 41-767 H465A limits assumed): as the sequence (Q9R186 41-767 M642A limits assumed) above, with H425A, A602M counted along it
Excerpt: as §1, §2, §3

For another data set, the target named is rTRPV6-E402A (Rattus norvegicus, UniProt Q9R186, E442A). Nature of the data set: cell-based.
Chain of rTRPV6-E402A (Q9R186 41-767 E442A limits assumed): as the sequence (Q9R186 41-767 M642A limits assumed) above, with E402A, A602M counted along it
Excerpt: as §1, §2, §3

The next data set has as its system rat TRPV2 (rTRPV2-Y514A). The following applies: leftward shift of 2-APB concentration dependence; HEK 293 cells, Fura-2. From the text: (§4) Fig. 5 Probing of the 2-APB binding site in different TRPV channels. a–c Dose–response curves for 2-APB activation of wild-type (black) and mutant (red) rat TRPV1 (a), rat TRPV2 (b), and mouse TRPV3 (c) channels with alanine substitution of the conserved tyrosine in the presumed 2-APB binding pocket. Each data point represents an average of n = 3–7 measurements with error bars representing SEMs. d, e Close-up view of superposition of the 2-APB binding pocket in the TRPV6*2-APB crystal structure (cyan) and the corresponding regions of rat TRPV1 (d) PDB ID: 5IRX, orange and rabbit TRPV2 (e) PDB ID: 5AN8, green. Phosphatidylcholine (PC), cholesterol and 2-APB molecules as well as the side chain of the conserved tyrosine are shown as sticks
(§5) For crystallization experiments, we used the previously developed construct TRPV6*[39], which includes wild-type rat TRPV6 (rTRPV6) residues 1–668 and three point mutations (I62Y, L92N, and M96Q), and the TRPV6*-Y466A construct, which contains an additional point mutation, Y466A. […]
(§6) The intracellular Ca^2+ measurements from HEK 293 cells expressing different TRP channel constructs (see above) were performed similarly to those described previously[39],[49]. […] The cells were subsequently pelleted and washed twice, and then resuspended in modified HBS for fluorescence measurements. Intracellular Ca^2+ was measured by taking the ratio of fluorescence (510 nm) emitted from Fura 2-AM after excitation at either a wavelength of 340 nm (excites Ca^2+ bound Fura 2-AM) or 380 nm (excites Ca^2+ free Fura 2-AM). The excitation wavelength was switched at 1-s intervals. ΔF340/F380 was measured as the difference between baseline F340/F380 ratio recorded before the addition of Ca^2+ (for TRPV6 experiments) or 2-APB (for TRPV1-3) and the maximum F340/F380 after addition of either Ca^2+ or 2-APB. […] All Fura2-AM-based fluorescence measurements were conducted using a QuantaMaster^TM 40 (Photon Technology International) spectrofluorometer at room temperature in a quartz cuvette under constant stirring.

The test system of data set [1] is mouse TRPV3 (mTRPV3-Y564A). The following applies: leftward shift of 2-APB concentration dependence; HEK 293 cells, Fura-2.
Excerpt: as §4, §5, §6

The next data set has as its system rat TRPV1 (rTRPV1-Y554A). The following applies: leftward shift of 2-APB concentration dependence; HEK 293 cells, Fura-2.
Excerpt: as §4, §5, §6

The next data set concerns TRPV4. The following applies: cited from earlier work.
A further data set concerns the target wild-type hTRPV6 (Homo sapiens, UniProt Q9H1D0). Description: cell-based. The protocol:
(§7) Arrows indicate the times when 2-APB and Ca^2+ were added. […] The changes in the fluorescence intensity ratio at 340 and 380 nm (F340/F380) evoked by addition of 2 mM Ca^2+ after preincubation with various concentrations of 2-APB were normalized to the maximal change in F340/F380 after addition of 2 mM Ca^2+ in the absence of 2-APB. […] Error bars represent SEMs
as §2
as §3, with “TRPV1/2/3).” for “TRPV1/2/3). All Fura2-AM-based fluorescence measurements were conducted using a QuantaMaster^TM 40 (Photon Technology International) spectrofluorometer at room temperature in a quartz cuvette under constant stirring.”

Another data set deals with hTRPV6-Y467A (Homo sapiens, UniProt Q9H1D0, Y507A). Nature of the data set: cell-based. The procedure: as §7, §2
as §3, with “TRPV1/2/3).” for “TRPV1/2/3). All Fura2-AM-based fluorescence measurements were conducted using a QuantaMaster^TM 40 (Photon Technology International) spectrofluorometer at room temperature in a quartz cuvette under constant stirring.”

Data set [2] addresses TRPV6* (rat TRPV6 residues 1-668, I62Y, L92N, M96Q) (Rattus norvegicus, UniProt Q9R186, I102Y/L132N/M136Q). Description: cell-based. The protocol:
as §7, §2
as §3, with “TRPV1/2/3).” for “TRPV1/2/3). All Fura2-AM-based fluorescence measurements were conducted using a QuantaMaster^TM 40 (Photon Technology International) spectrofluorometer at room temperature in a quartz cuvette under constant stirring.”

The next data set deals with wild-type rTRPV6 (Rattus norvegicus, UniProt Q9R186). Description: cell-based. The protocol: as §7, §2
Chain of wild-type rTRPV6 (Q9R186 41-767 limits assumed): as the sequence (Q9R186 41-767 M642A limits assumed) above, with A602M counted along it
as §3, with “TRPV1/2/3).” for “TRPV1/2/3). All Fura2-AM-based fluorescence measurements were conducted using a QuantaMaster^TM 40 (Photon Technology International) spectrofluorometer at room temperature in a quartz cuvette under constant stirring.”

In data set [3] the target is TRPV6* (rat TRPV6 residues 1-668 with I62Y, L92N and M96Q) (rat) (UniProt Q9R186). Description: crystal structure; TRPV6* constructs purified in DDM, without or with 1 mM 2-APB or 2-APB-Br; hanging drop, 20 °C, 20-24% PEG 350 MME, 50 mM NaCl, 50 mM Tris-HCl pH 8.0-8.5.
Data set [4] concerns the molecule itself. Nature of the data set: cryo-EM structure; hTRPV6-Y467A in amphipols, 0.35 mg/ml, without or with 1 mM 2-APB; C4 symmetry imposed.
Where [5] appears, read: HEK 293 cells, Fura-2, logistic fit.
[6] abbreviates: HEK 293 cells, Fura-2, logistic fit, mean ± SEM.

As usually defined, the IC50 is the concentration needed to halve the response being measured. What is called stoichiometry N is a count of units in the complex or per binding partner.

Chain of wild-type hTRPV6 (Q9H1D0 41-765 limits assumed): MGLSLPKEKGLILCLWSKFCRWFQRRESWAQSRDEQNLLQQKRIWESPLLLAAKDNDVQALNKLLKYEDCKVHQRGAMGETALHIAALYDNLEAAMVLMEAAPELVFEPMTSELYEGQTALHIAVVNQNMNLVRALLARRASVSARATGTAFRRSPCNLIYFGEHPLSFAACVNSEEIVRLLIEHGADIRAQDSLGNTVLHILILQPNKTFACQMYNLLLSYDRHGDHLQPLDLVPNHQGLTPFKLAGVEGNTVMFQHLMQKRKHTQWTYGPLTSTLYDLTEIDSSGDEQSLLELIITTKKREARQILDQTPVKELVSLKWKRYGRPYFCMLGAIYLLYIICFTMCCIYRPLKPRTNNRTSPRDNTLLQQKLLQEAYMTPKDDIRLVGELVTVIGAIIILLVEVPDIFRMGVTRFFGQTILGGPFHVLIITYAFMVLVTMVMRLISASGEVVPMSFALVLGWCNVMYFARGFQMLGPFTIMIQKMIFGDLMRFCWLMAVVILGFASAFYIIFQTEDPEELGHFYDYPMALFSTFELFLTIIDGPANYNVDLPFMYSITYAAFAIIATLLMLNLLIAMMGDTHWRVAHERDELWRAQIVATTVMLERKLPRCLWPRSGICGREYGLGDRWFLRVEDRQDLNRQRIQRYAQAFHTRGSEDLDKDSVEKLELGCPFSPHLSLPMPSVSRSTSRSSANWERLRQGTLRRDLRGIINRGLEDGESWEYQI
Chain of TRPV6* (rat TRPV6 residues 1-668, I62Y, L92N, M96Q) (Q9R186 1-668 I102Y/L132N/M136Q): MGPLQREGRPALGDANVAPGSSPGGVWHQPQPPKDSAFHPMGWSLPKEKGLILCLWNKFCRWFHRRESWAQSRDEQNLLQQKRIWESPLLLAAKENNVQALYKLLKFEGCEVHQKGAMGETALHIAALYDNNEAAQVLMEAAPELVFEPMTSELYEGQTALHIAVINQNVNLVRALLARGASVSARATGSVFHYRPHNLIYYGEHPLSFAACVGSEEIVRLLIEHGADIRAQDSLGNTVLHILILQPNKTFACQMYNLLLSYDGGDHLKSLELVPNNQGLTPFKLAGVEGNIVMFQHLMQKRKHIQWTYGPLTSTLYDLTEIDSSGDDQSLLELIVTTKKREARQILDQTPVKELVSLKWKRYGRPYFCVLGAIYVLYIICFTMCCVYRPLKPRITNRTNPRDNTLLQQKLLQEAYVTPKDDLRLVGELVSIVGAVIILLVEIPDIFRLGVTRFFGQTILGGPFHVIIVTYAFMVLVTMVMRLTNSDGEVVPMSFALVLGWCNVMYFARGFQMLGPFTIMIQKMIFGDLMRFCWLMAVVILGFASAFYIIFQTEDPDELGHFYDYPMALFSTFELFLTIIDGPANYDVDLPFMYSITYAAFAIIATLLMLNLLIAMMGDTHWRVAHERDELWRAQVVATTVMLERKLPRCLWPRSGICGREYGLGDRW
Chain of rTRPV6-Y466A (Q9R186 41-767 Y506A limits assumed): as the sequence (Q9R186 41-767 M642A limits assumed) above, with Y466A, A602M counted along it

For `NCCOB(c1ccccc1)c1ccccc1` [2-APB, 2-aminoethoxydiphenyl borate], in the data set with TRPV5, the “2-APB modulation of TRPV5” value is reported as “lack of measurable 2-APB modulation”. Further, the IC50 worked out at 3.62 ± 0.54 µM against rTRPV6-Y466A; 98 ± 19 µM at rTRPV6-M602A; 23.4 ± 1.6 µM against rTRPV6-R469A; 165 ± 32 µM at rTRPV6-H425A; 7.5 ± 2.1 µM on rTRPV6-E402A; 274 ± 27 µM at wild-type hTRPV6. Also, the results for the IC50 (against hTRPV6-Y467A; in [2]; at wild-type rTRPV6) were 60 ± 13 µM, 156 ± 20 µM and 184 ± 8 µM, respectively. In the data set with rat TRPV2 (rTRPV2-Y514A), the “increase in 2-APB agonist potency, TRPV2 tyrosine-to-alanine mutant vs wild-type” value was 40 fold. Also, the “increase in 2-APB agonist potency, TRPV3 tyrosine-to-alanine mutant vs wild-type” value in [1] was found to be 20 fold. For the same molecule, in the data set with rat TRPV1 (rTRPV1-Y554A), the “increase in 2-APB agonist potency, TRPV1 tyrosine-to-alanine mutant vs wild-type” value is given as 3 fold. The “2-APB modulation of TRPV4” value with TRPV4 is listed as “lack of measurable 2-APB modulation”. The “maximal inhibition of Ca2+ uptake, wild-type hTRPV6” value on wild-type hTRPV6 (setting [5]) was found to be 72.6 ± 2.7%. For the same molecule, the “maximal inhibition of Ca2+ uptake, hTRPV6-Y467A” value at hTRPV6-Y467A (setting [5]) is 92.4 ± 8.1%. Moreover, at hTRPV6-Y467A (ratio of IC50 values), the “increased potency of 2-APB inhibition, hTRPV6-Y467A compared to hTRPV6” value worked out at 4.5 fold. In data set [2] (setting [6]), the “maximal inhibition of Ca2+ uptake, TRPV6*” value was found to be 83.5 ± 2.9%. For the same molecule, the “maximal inhibition of Ca2+ uptake, wild-type rTRPV6” value at wild-type rTRPV6 (setting [6]) was 93.6 ± 1.1%.
In [3], “TRPV6* (rat TRPV6 residues 1-668 with I62Y, L92N and M96Q) (from UniProt Q9R186 1-668) (domain or fragment)” yielded a stoichiometry N of 4.

B1: human TRPV6 with a single tyrosine-to-alanine substitution (hTRPV6-Y467A) (natural protein)
chain: MGLSLPKEKGLILCLWSKFCRWFQRRESWAQSRDEQNLLQQKRIWESPLLLAAKDNDVQALNKLLKYEDCKVHQRGAMGETALHIAALYDNLEAAMVLMEAAPELVFEPMTSELYEGQTALHIAVVNQNMNLVRALLARRASVSARATGTAFRRSPCNLIYFGEHPLSFAACVNSEEIVRLLIEHGADIRAQDSLGNTVLHILILQPNKTFACQMYNLLLSYDRHGDHLQPLDLVPNHQGLTPFKLAGVEGNTVMFQHLMQKRKHTQWTYGPLTSTLYDLTEIDSSGDEQSLLELIITTKKREARQILDQTPVKELVSLKWKRYGRPYFCMLGAIYLLYIICFTMCCIYRPLKPRTNNRTSPRDNTLLQQKLLQEAYMTPKDDIRLVGELVTVIGAIIILLVEVPDIFRMGVTRFFGQTILGGPFHVLIITYAFMVLVTMVMRLISASGEVVPMSFALVLGWCNVMAFARGFQMLGPFTIMIQKMIFGDLMRFCWLMAVVILGFASAFYIIFQTEDPEELGHFYDYPMALFSTFELFLTIIDGPANYNVDLPFMYSITYAAFAIIATLLMLNLLIAMMGDTHWRVAHERDELWRAQIVATTVMLERKLPRCLWPRSGICGREYGLGDRWFLRVEDRQDLNRQRIQRYAQAFHTRGSEDLDKDSVEKLELGCPFSPHLSLPMPSVSRSTSRSSANWERLRQGTLRRDLRGIINRGLEDGESWEYQILVPRGSAAAWSHPQFEK
For B1, the “stoichiometry N” value in data set [4] was 4.

Source of the values: PMC6018633, “Structural bases of TRP channel TRPV6 allosteric modulation by 2-APB” (Nature Communications, 2018).
